# In US9518254B2, “Compositions and methods for identifying enzyme and transport protein inhibitors” (San Diego State University Research Foundation, priority 2009, dated 2016):
# What was measured:
# HIV-1 protease (PR) [1] = format: cell-based; details: SupT1 PR/Gal4 clone, 1 μg/mL Dox; for inhibitor concentration resulting in eGFP activation: analyzed 50 hrs later, range tested 1 nM to 20 μM
# [2] = tested on: tet-responsive element (TRE) / rtTA; test: Doxycycline activation titration of clonal SupT1 cells (Tet-On induction of eGFP reporter); format: cell-based
# From the text: To obtain an inducible cell line, we utilized the tetracycline inducible system (Tet-On). For this purpose we constructed two lentiviral vectors; one harboring a 7× Tetracycline Response Element (TRE) upstream the gene of interest and another expressing the reverse tet-transactivator (rtTA) coupled to an IRES-mCherry cassette to corroborate rtTA expression. In this system, the TRE element is bound and activated by rtTA only in the presence of an inducer (Tet or Dox). Gal4, PR/Gal4 and PRm/Gal4 were all transferred into the TRE inducible vector (see Figures).
# In order to optimize the assay for maximal Gal4, PR/Gal4 or PRm/Gal4 induction, we analyzed the effect of increasing levels of Dox. Cells with 0, 50, 100, 250, 500, 750, 1,000, and 2,000 ng/mL Dox were either treated with 10 uM DMSO or 10 uM Indinavir and analyzed 32 hours later. TRE-Gal4 cells reached saturation with Doxycycline at about 1,000 ng/mL whether Indinavir was present or not. […] Again, as with transiently transfected 293 cells, TRE-PR/Gal4 cells had little to non-detectable eGFP expression at any given Dox concentration in the absence of 10 μM Indinavir.
# (§1) FIG. 22 graphically illustrates data determining the optimal conditions for activating the assay to screen for PR inhibition. FIG. 22A graphically illustrates a Doxycycline titration. Clonal SupT1 cells harboring an inducible Gal4, PR/Gal4 or PRm/Gal4 were pre-incubated in a 96 well plate with either DMSO or 10 μM Indinavir and then either left untreated, or activated with […] of Dox. Cells were analyzed by flow cytometry and gated to determine the number of cells positive for eGFP expression. FIG. 22B graphically illustrates a time course of eGFP Induction in response to Doxycyline activation in the presence of DMSO or a PI. SupT1 clones harboring Gal4, PR/Gal4, or PRm/Gal4 were pre-incubated in a 96 well plate with either DMSO or 10 μM Indinavir and then activated with 1 μg/mL Dox. Cells were analyzed at either 4, 8, 12, 16, 20, 25, 50 or 75 hours by flow cytometry and gated for eGFP positive expression.
# HIV-1 protease (PR) [3] = format: cell-based
# From the text: Finally, cells were infected with virus encoding the reporter, rtTA and inducible wild-type PR/Gal4 (pH-TRE-PR/Gal4) to test the ability for this system in T-cells to indicate the levels of PR activity.
# Finally, individual cells from these sorted populations were sorted into a 96 well plate based on the lack of eGFP expression. Clonal cell lines obtained from this experiment were later activated under the same conditions described above, and screened for the individual clones which responded as desired (minimal background and maximal eGFP activation). […] These clones were then expanded and further tested in the following experiments.
# To determine the optimal time point for the analysis of eGFP expression in the presence of inhibitor, cells were activated with Dox and analyzed by flow cytometry 4, 8, 12, 16, 20, 25, 50, or 75 hours later. Six-well plates containing 250K cells per well in 3 mL media were treated either with DMSO alone as control, or 1 μg/mL Dox and 10 μM Indinavir.
# A 2 ml reaction containing 4 μl of 5 μg/mL Polybrene (Hexadimethrene Bromide, Sigma), 500K SupT1 cells in RPMI (10% FCS, L-glutamine, Pen-strep) and 250 μl frozen viral stocks was mixed, added to wells in 6-well plates, and spun in a hanging bucket rotors Becton Dickinson centrifuge at 1500 RPM, for 120′ at 32° C. Cells were re-suspended and placed in a 37° C. incubator for the analysis of expression at least 72 hours post-infection.
# Flow Cytometry was performed on a BD FACSAria with 488 nm and 633 nm lasers. Data was collected on FACSDiva 6.1.1 software and then exported to FlowJo. eGFP expression was detected in the FITC channel and mCherry expression was detected on the PE-Texas-Red channel. Cells were first gated for size and granularity (FSC-A vs SSC-A) followed by doublet gating (FSC-A vs FSC-W and SSC-A vs. SSC-W). Sorted populations were gated on PE-TexasRed vs FITC plot. 250K cells were collected for each sample into 0.5 mL fetal calf serum (FCS) and 1 mL RPMI. Cells were then spun down at 1500 RPM and resuspended in fresh media in 6-well plates. Cells were allowed to grow for at least seven days to allow for expansion and loss of previously activated eGFP expression.
# as §1
# HIV-1 protease (PR) [4] = format: cell-based; details: HEK293T cells pre-treated with 10 uM inhibitor, co-transfected with reporter and pcDNA-PR/Gal4
# Method: It was of critical importance to verify the ability for the PR/Gal4 fusion to activate the reporter eGFP by the addition of PR inhibitors. For that purpose, 293T cells were pre-treated with 10 μM Indinavir and then co-transfected with reporter and pcDNA-PR/Gal4 vectors.
# 293T cells were transfected as follows. 15 μl of 2 mg/mL Polyethylenimine linear 25 kD (Polysciences, Inc.) were added to 125 μl of DMEM in a 1.8 ml Eppendorf tube. 3 μg of each DNA was added drop-wise to each tube. Tubes were mixed and incubated for 20 min at RT. This mixture was then added drop-wise to 293T cells in a 10 cm plate at ˜60-75% confluence. Cells were then analyzed by fluorescence microscopy and/or flow cytometry 24 hrs post transfection.
# Top Panel: Fluorescence microscopy of eGFP expression in HEK293T cells 24 hours post transfection with the reporter vector (pFR), or co-transfection with the reporter vector plus either the Gal4, PR/Gal4, or PRm/Gal4 vectors. Bottom panel: HEK293T cells were analyzed by flow cytometry at 24 hours post transfection with the same conditions top panel. Gates were drawn to determine the ability to identify cells with an active PI. […] Quantification of eGFP expression in HEK293T transfected with various assay elements. The numbers of cells under various conditions were quantified for eGFP levels indicative of PR inhibition. Results shown are an average of 3 experiments.
# SupT1 cells [5] = details: human, 50 h
# Method: (§2) The range chosen extended from 1 nM to 20 μM.
# (§3) The selected SupT1 clone expressing rtTA and mCherry, the 5×UAS-eGFP reporter and an inducible PR/Gal4 were activated with 1 μg/mL and incubated with various concentrations (1, 10, 50, 100, 500, 1000, 5000, 10000 or 20000 ng/mL) of an FDA approved PI: Either Amprenavir, Atazanavir, Darunavir, Indinavir, Lopinavir, Nelfinavir, Ritonavir, Saquinavir, or Tipranavir. Cells were then analyzed 50 hrs later for eGFP expression as determined by flow cytometry on a BD FACSAria.
# HIV-1 protease (PR) [6] = test: Expression of GFP-PR fusion in cells transfected with pcDNA-GFP-PR (fluorescence microscopy); format: cell-based; details: inhibitor added at 0 and 24 h post transfection
# From the text: In one embodiment, to achieve low levels of protease, e.g., PR, expression in mammalian cells, a tetracycline (Tet) inducible system is used. FIG. 3 illustrates by fluorescence microscopy use of an exemplary vector of the invention, a Tet-inducible HIV-based self-inactivating vector, that allows regulated expression of the gene of interest. In this case, we have used the enhanced green fluorescent protein (eGFP) as the ectopic gene. This vector allows different levels of protein expression. Tight repression and expression of PR at low levels may be crucial to avoid the possible side effects of PR. […] FIG. 3 illustrates by fluorescence microscopy HeLa cells infected with a Tet inducible HIV-based self-inactivating vector. The cells were incubated with 1 μg/ml Tet and eGFP expression was observed by fluorescence microscopy 24 and 72 h post addition of Tet. […]
# In summary, FIG. 4 illustrates fluorescent microscopy analysis of cells transfected with pcDNA control (Invitrogen) and pcDNA-GFP-PR. GFP expression was analyzed 24 h post transfection. […]
# In summary, FIG. 5 graphically illustrates flow cytometry analysis of cells expressing PR-GFP fusion. Cells transfected with pcDNA (control) or pcDNA-GFP-PR fusions were collected 48 hr post-transfection and analyzed for GFP expression. […]
# SupT1 cells [7] = test: Cell death in reporter SupT1 T-cell clones incubated with PR inhibitors; details: SupT1 PR/Gal4 clone, 50 hrs
# Method: as §2, §3
structure (smiles),measurement,setting,value
COC(=O)N[C@H](C(=O)N[C@@H](Cc1ccccc1)[C@@H](O)CN(Cc1ccc(-c2ccccn2)cc1)NC(=O)[C@@H](NC(=O)OC)C(C)(C)C)C(C)(C)C [Atazanavir],inhibitor concentration resulting in eGFP activation,HIV-1 protease (PR) [1],1 nM
CC(C)CN(C[C@@H](O)[C@H](Cc1ccccc1)NC(=O)O[C@H]1CO[C@H]2OCC[C@H]21)S(=O)(=O)c1ccc(N)cc1 [Darunavir],inhibitor concentration resulting in eGFP activation,HIV-1 protease (PR) [1],1 nM
C[C@H]1c2cccc(O)c2C(=O)C2=C(O)[C@]3(O)C(=O)C(C(N)=O)=C(O)[C@@H](N(C)C)[C@@H]3[C@@H](O)[C@@H]21 [Doxycycline],Dox concentration at saturation of eGFP induction,"[2]; TRE-Gal4 cells, with or without 10 uM Indinavir, 32 hours","about 1,000 ng/mL"
same,Dox concentration at maximal eGFP induction,"[2]; TRE-PR/Gal4 cells pre-incubated with 10 μM Indinavir, 32 hours",around 500 ng/mL
same,Dox concentration at saturation of eGFP induction,"[2]; TRE-PRm/Gal4 cells, uninhibited and Indinavir-treated, 32 hours",around 250 ng/mL
same,Dox concentration at which activation is saturated,[2]; clonal SupT1 cells pre-incubated with DMSO or 10 μM Indinavir,around 1 μg/mL
CC(C)(C)NC(=O)[C@@H]1CN(Cc2cccnc2)CCN1C[C@@H](O)C[C@@H](Cc1ccccc1)C(=O)N[C@H]1c2ccccc2C[C@H]1O [Indinavir],activation of PR/Gal4 clones (GFP positive),"HIV-1 protease (PR) [3]; SupT1 PR/Gal4 clones, Dox 1 μg/mL, PI 10 μM",~90%
same,time of initial induction of eGFP expression,"HIV-1 protease (PR) [3]; SupT1 clone, 1 μg/mL Dox and 10 μM inhibitor",8 h
same,eGFP expression (positive cells) by 50 hours,"HIV-1 protease (PR) [3]; SupT1 clone, 1 μg/mL Dox and 10 μM inhibitor, 50 hours",~100%
same,time at which activation of clones reaches max,"HIV-1 protease (PR) [3]; clonal SupT1 cells in 96-well plates, pre-incubation with 10 μM PI, Dox activation",around 48 hrs
same,eGFP induction in presence of inhibitor,"HIV-1 protease (PR) [3]; non-clonal SupT1 cells with reporter, rtTA and pH-TRE-PR/Gal4, 1 μg/mL Dox and 10 μM inhibitor",large induction of eGFP expression
same,inhibitor concentration inducing nearly full activation of eGFP reporter,HIV-1 protease (PR) [1]; 50 hrs,5 µM
same,level of reporter activation at low concentrations,"HIV-1 protease (PR) [1]; 50 hrs, compared with the other FDA-approved PIs",lowest levels of reporter activation at low concentrations
same,eGFP induction by PR/Gal4 fusion in presence of inhibitor,HIV-1 protease (PR) [4],drastic induction
Cc1cccc(C)c1OCC(=O)N[C@@H](Cc1ccccc1)[C@@H](O)C[C@H](Cc1ccccc1)NC(=O)[C@H](C(C)C)N1CCCNC1=O [Lopinavir],"concentration resulting in significant cell death, with decline in number of eGFP positive cells",SupT1 cells [5],around 1 uM
Cc1c(O)cccc1C(=O)N[C@@H](CSc1ccccc1)[C@H](O)CN1C[C@H]2CCCC[C@H]2C[C@H]1C(=O)NC(C)(C)C [Nelfinavir],"concentration resulting in significant cell death, with decline in number of eGFP positive cells",SupT1 cells [5],around 1 uM
CC(C)(C)NC(=O)[C@@H]1C[C@@H]2CCCC[C@@H]2CN1C[C@@H](O)[C@H](Cc1ccccc1)NC(=O)[C@H](CC(N)=O)NC(=O)c1ccc2ccccc2n1 [Saquinavir],expression of N-terminal GFP-PR fusion in presence of inhibitor,HIV-1 protease (PR) [6],highly expressed
same,concentration with significant decline in the number of eGFP positive cells (cell death),SupT1 cells [7],20 µM
CCC[C@@]1(CCc2ccccc2)CC(O)=C([C@H](CC)c2cccc(NS(=O)(=O)c3ccc(C(F)(F)F)cn3)c2)C(=O)O1 [Tipranavir],inhibitor concentration inducing nearly full activation of eGFP reporter,HIV-1 protease (PR) [1]; 50 hrs,5 µM
